Measurements: ChEMBL document CHEMBL3098090, “Cytotoxic activity of gypenosides and gynogenin against non-small cell lung carcinoma A549 cells” (Bioorg Med Chem Lett, 2014)
In brackets after ≈: the same amount, converted by molar mass.

Test system: A549
Assay: Cytotoxicity against human A549 cells after 48 hrs by MTT assay
Assay type: functional, cell-based
Conditions: A549, 48 h

Compound | IC50 [µg/mL]
CC(C)=CCC[C@](C)(O)[C@H]1CC[C@]2(C)[C@@H]1[C@H](O)C[C@@H]1[C@@]3(C)CC[C@H](O[C@@H]4O[C@H](CO)[C@@H](O)[C@H](O)[C@H]4O[C@@H]4O[C@H](CO)[C@@H](O)[C@H](O)[C@H]4O)C(C)(C)[C@@H]3CC[C@]12C | 55.4 (≈ 70.5 µM)
CC(C)=CCC[C@](C)(O)[C@H]1CC[C@]2(C)[C@@H]1[C@H](O)C[C@@H]1[C@@]3(C)C[C@@H](O)[C@H](O[C@@H]4O[C@H](CO)[C@@H](O)[C@H](O)[C@H]4O[C@@H]4O[C@H](CO)[C@@H](O)[C@H](O)[C@H]4O)C(C)(C)[C@@H]3CC[C@]12C | 34.9 (≈ 43.6 µM)
CC(C)=CCC[C@@](C)(O)[C@H]1CC[C@]2(C)[C@@H]1[C@H](O)C[C@@H]1[C@@]3(C)C[C@@H](O)[C@H](O[C@@H]4O[C@H](CO)[C@@H](O)[C@H](O)[C@H]4O[C@@H]4O[C@H](CO)[C@@H](O)[C@H](O)[C@H]4O)C(C)(C)[C@@H]3CC[C@]12C | 51 (≈ 63.6 µM)
CC(C)=CCC[C@](C)(O[C@@H]1O[C@H](CO)[C@@H](O)[C@H](O)[C@H]1O)[C@H]1CC[C@]2(C)[C@@H]1[C@H](O)C[C@@H]1[C@@]3(C)C[C@@H](O)[C@H](O[C@@H]4O[C@H](CO)[C@@H](O)[C@H](O)[C@H]4O[C@@H]4O[C@H](CO)[C@@H](O)[C@H](O)[C@H]4O)C(C)(C)[C@@H]3CC[C@]12C | 52.6 (≈ 54.6 µM)
CC(C)=CCC[C@](C)(O[C@@H]1O[C@H](CO[C@@H]2OC[C@@H](O)[C@H](O)[C@H]2O)[C@@H](O)[C@H](O)[C@H]1O)[C@H]1CC[C@]2(C)[C@@H]1[C@H](O)C[C@@H]1[C@@]3(C)C[C@@H](O)[C@H](O[C@@H]4O[C@H](CO)[C@@H](O)[C@H](O)[C@H]4O[C@@H]4O[C@H](CO)[C@@H](O)[C@H](O)[C@H]4O)C(C)(C)[C@@H]3CC[C@]12C | 106 (≈ 96.7 µM)
CC(C)=CCC[C@](C)(O)[C@H]1CC[C@]2(C)[C@@H]1[C@H](O)C[C@@H]1[C@@]3(C)C[C@@H](O)[C@H](O)C(C)(C)[C@@H]3CC[C@]12C | 12.5 (≈ 26.3 µM)
